From patent publication US20250090520A1, “DERIVATIVES OF TURBINMICIN AS ANTIFUNGAL AGENTS” (Wisconsin Alumni Research Foundation, priority 2021, published 2025)
Values after ≈ are worked out from the molar mass of the structure shown. Like-named read-outs stand apart in the source and are kept apart here.

Tests used:
[1] = tested on: four Candida isolates, C. albicans K-1, C. tropicalis 98-234, C. auris B 11211, and C. glabrata 4720; experiment: In vitro MIC susceptibility testing, positive control over the isolates; type: cell-based; conditions: RPMI medium, 33° C., 24 hours
Description: (§1) In vitro MIC susceptibility testing. Turbinmicin analogs of the present disclosure were tested for antifungal activity against four Candida isolates, C. albicans K-1, C. tropicalis 98-234, C. auris B 11211, and C. glabrata 4720, and MICs were determined using a broth microdilution method for yeasts. A turbinmicin analog was dissolved in DMSO, serially diluted to 10 concentrations (0.125-64 μg/mL), and tested in a 96-well plate in RPMI medium. Amphotericin B was used as a positive control and the MICs range were 0.25-1.5 μg/mL. Six untreated media controls were included on each plate. The plates were incubated at 33° C. for 24 hours. The MICs were determined as the lowest concentration that inhibited visible growth. The MICs were read at 24. Results are shown in Table 1 for turbinmicin analog activity against various fungi, including drug-resistant fungi.

[2] = tested on: C. albicans K-1; experiment: In vitro MIC susceptibility testing, broth microdilution; type: cell-based, Candida albicans; conditions: for MIC: Candida albicans, read-out: MIC C. albicans K-1
Description: (§2) In vitro MIC susceptibility testing. […] Six untreated media controls were included on each plate. The plates were incubated at 33° C. for 24 hours. The MICs were determined as the lowest concentration that inhibited visible growth. The MICs were read at 24.

[3] = tested on: C. tropicalis 98-234; experiment: as above; type: cell-based, Candida tropicalis; conditions: for MIC: read-out: MIC C. tropicalis 98-234
Description: as §2

[4] = tested on: C. auris B 11211; experiment: as above; type: cell-based, Candida auris; conditions: for MIC: Candidozyma auris, read-out: MIC C. auris B11211
Description: as §1, with “Amphotericin B was used as a positive control and the MICs range were 0.25-1.5 μg/mL.” left out, “24.” for “24. Results are shown in Table 1 for turbinmicin analog activity against various fungi, including drug-resistant fungi.”

[5] = tested on: C. glabrata 4720; experiment: as above; type: cell-based, Candida glabrata; conditions: for MIC: read-out: MIC C. glabrata 4720
Description: as §2

[6] = Candida tropicalis, 98234, 24 h
[7] = Nakaseomyces glabratus, 4720, 24 h
[8] = K1, RPMI medium, 33° C., 24 hours, lowest concentration that inhibited visible growth
[9] = Candida tropicalis, 98234, RPMI medium, 33° C., 24 hours, lowest concentration that inhibited visible growth
[10] = B11211, multidrug-resistant clinical isolate, RPMI medium, 33° C., 24 hours, lowest concentration that inhibited visible growth
[11] = Nakaseomyces glabratus, 4720, RPMI medium, 33° C., 24 hours, lowest concentration that inhibited visible growth
[12] = RPMI medium, 33° C., 24 hours, lowest concentration that inhibited visible growth

Row | Compound | MIC ([2]; K1, 24 h) | MIC [3, 6] | MIC ([4]; B11211, 24 h) | MIC [5, 7] | further results
1 | C[C@@H]1[C@H](O)[C@@H](C)/C=C/C=C/C=C/C=C/C=C/C=C/C=C/[C@H](O[C@@H]2O[C@H](C)[C@@H](O)[C@H](N)[C@@H]2O)C[C@@H]2O[C@](O)(C[C@@H](O)C[C@@H](O)[C@H](O)CC[C@@H](O)C[C@@H](O)CC(=O)O[C@H]1C)C[C@H](O)[C@H]2C(=O)O [Amphotericin B] | – | – | – | – | MICs range (positive control) [1]: 0.25 to 1.5 µg/mL
2 | C/C=C/C=C/C=C/C(=O)O[C@@H]1C=CC[C@H]2/C(=N/CCN3CCCCC3)c3c(O)c4c5c(c3O[C@H]12)OCO[C@@H]5C[C@@H]1C(=O)c2cc(C)[nH]c(=O)c2C(=O)[C@]41O [Compound T21] | 0.25 µg/mL (≈ 0.339 µM) | 0.25 µg/mL (≈ 0.339 µM) | 0.06 µg/mL (≈ 0.0813 µM) | 0.25 µg/mL (≈ 0.339 µM) | –
3 | C/C=C/C=C/C=C/C(=O)O[C@@H]1C=CC[C@H]2C(=NCCN3CCN(C)CC3)c3c(O)c4c5c(c3O[C@H]12)OCO[C@@H]5C[C@@H]1C(=O)c2cc(C)[nH]c(=O)c2C(=O)[C@]41O [Compound T26] | – | – | – | – | MIC [2, 8]: 0.5 µg/mL (≈ 0.664 µM); MIC [3, 9]: 0.05 µg/mL (≈ 0.0664 µM); MIC [4, 10]: 0.03 µg/mL (≈ 0.0399 µM); MIC [5, 11]: 0.5 µg/mL (≈ 0.664 µM)
4 | C/C=C/C=C/C=C/C(=O)O[C@@H]1C=CC[C@H]2/C(=N/CCO)c3c(O)c4c5c(c3O[C@H]12)OCO[C@@H]5C[C@@H]1C(=O)c2cc(C)[nH]c(=O)c2C(=O)[C@]41O [Compound T7] | > 4 µg/mL | > 4 µg/mL | > 4 µg/mL | > 4 µg/mL | –
5 | C/C=C/C=C/C=C/C(=O)O[C@@H]1C=CC[C@H]2C(=NCCN3CCCC3)c3c(O)c4c5c(c3O[C@H]12)OCO[C@@H]5C[C@@H]1C(=O)c2cc(C)[nH]c(=O)c2C(=O)[C@]41O [Compound T19] | 0.5 µg/mL (≈ 0.691 µM) | 0.38 µg/mL (≈ 0.525 µM) | 0.25 µg/mL (≈ 0.345 µM) | 0.5 µg/mL (≈ 0.691 µM) | –
6 | C/C=C/C=C/C=C/C(=O)O[C@@H]1C=CC[C@H]2C(=NCCCCCN3CCOCC3)c3c(O)c4c5c(c3O[C@H]12)OCO[C@@H]5C[C@@H]1C(=O)c2cc(C)[nH]c(=O)c2C(=O)[C@]41O [Compound T27] | 1 µg/mL (≈ 1.28 µM) | 2 µg/mL (≈ 2.56 µM) | 0.5 µg/mL (≈ 0.64 µM) | 1 µg/mL (≈ 1.28 µM) | –
7 | Turbinmicin [reference compound] | – | – | – | – | MIC C. albicans K-1 [2, 12]: 0.06 µg/mL; MIC C. tropicalis 98-234 [3, 12]: 0.25 µg/mL; MIC C. auris B11211 ([4]; multidrug-resistant clinical isolate, RPMI medium, 33° C., 24 hours, lowest concentration that inhibited visible growth): 0.05 µg/mL; MIC C. glabrata 4720 [5, 12]: 0.13 µg/mL
8 | C/C=C/C=C/C=C/C(=O)O[C@@H]1C=CC[C@H]2C(=NCCCNC)c3c(O)c4c5c(c3O[C@H]12)OCO[C@@H]5C[C@@H]1C(=O)c2cc(C)[nH]c(=O)c2C(=O)[C@]41O [Compound T18] | 1 µg/mL (≈ 1.43 µM) | 0.75 µg/mL (≈ 1.07 µM) | 0.38 µg/mL (≈ 0.545 µM) | 0.5 µg/mL (≈ 0.717 µM) | –
9 | C/C=C/C=C/C=C/C(=O)O[C@@H]1C=CC[C@H]2/C(=N/CCN(C)C)c3c(O)c4c5c(c3O[C@H]12)OCO[C@@H]5C[C@@H]1C(=O)c2cc(C)[nH]c(=O)c2C(=O)[C@]41O [Compound T8] | 0.13 µg/mL (≈ 0.186 µM) | 0.13 µg/mL (≈ 0.186 µM) | 0.25 µg/mL (≈ 0.358 µM) | 0.25 µg/mL (≈ 0.358 µM) | –
10 | C/C=C/C=C/C=C/C(=O)O[C@@H]1C=CC[C@H]2/C(=N/C)c3c(O)c4c5c(c3O[C@H]12)OCO[C@@H]5C[C@@H]1C(=O)c2cc(C)[nH]c(=O)c2C(=O)[C@]41O [Compound T12] | 1 µg/mL (≈ 1.56 µM) | 1 µg/mL (≈ 1.56 µM) | > 4 µg/mL | 0.5 µg/mL (≈ 0.78 µM) | –
11 | C/C=C/C=C/C=C/C(=O)O[C@@H]1C=CC[C@H]2C(=NCCN3CCS(=O)(=O)CC3)c3c(O)c4c5c(c3O[C@H]12)OCO[C@@H]5C[C@@H]1C(=O)c2cc(C)[nH]c(=O)c2C(=O)[C@]41O [Compound T24] | 0.75 µg/mL (≈ 0.952 µM) | 1 µg/mL (≈ 1.27 µM) | 0.28 µg/mL (≈ 0.355 µM) | 1 µg/mL (≈ 1.27 µM) | –
12 | C/C=C/C=C/C=C/C(=O)O[C@@H]1C=CC[C@H]2/C(=N\C(C)CN3CCOCC3)c3c(O)c4c5c(c3O[C@H]12)OCO[C@@H]5C[C@@H]1C(=O)c2cc(C)[nH]c(=O)c2C(=O)[C@]41O (stereo partly drawn) [Compound T25] | 0.5 µg/mL (≈ 0.663 µM) | 1 µg/mL (≈ 1.33 µM) | 0.25 µg/mL (≈ 0.332 µM) | 0.5 µg/mL (≈ 0.663 µM) | –
13 | C/C=C/C=C/C=C/C(=O)O[C@@H]1C=CC[C@H]2/C(=N/Cc3ccccc3)c3c(O)c4c5c(c3O[C@H]12)OCO[C@@H]5C[C@@H]1C(=O)c2cc(C)[nH]c(=O)c2C(=O)[C@]41O [Compound T10] | – | – | – | – | MIC [2, 8]: 2 µg/mL (≈ 2.79 µM); MIC [3, 9]: 4 µg/mL (≈ 5.58 µM); MIC [4, 10]: 4 µg/mL (≈ 5.58 µM); MIC [5, 11]: 1 µg/mL (≈ 1.4 µM)
14 | C/C=C/C=C/C=C/C(=O)O[C@@H]1C=CC[C@H]2C(=NCCCN3CCOCC3)c3c(O)c4c5c(c3O[C@H]12)OCO[C@@H]5C[C@@H]1C(=O)c2cc(C)[nH]c(=O)c2C(=O)[C@]41O [Compound T23] | – | – | – | – | MIC [2, 8]: 1 µg/mL (≈ 1.33 µM); MIC [3, 9]: 1 µg/mL (≈ 1.33 µM); MIC [4, 10]: 0.63 µg/mL (≈ 0.836 µM); MIC [5, 11]: 1 µg/mL (≈ 1.33 µM)
15 | C=CC/N=C1/c2c(O)c3c4c(c2O[C@@H]2[C@H](OC(=O)/C=C/C=C/C=C/C)C=CC[C@@H]12)OCO[C@@H]4C[C@@H]1C(=O)c2cc(C)[nH]c(=O)c2C(=O)[C@]31O [Compound T5] | 2 µg/mL (≈ 3 µM) | 4 µg/mL (≈ 6 µM) | 2 µg/mL (≈ 3 µM) | 4 µg/mL (≈ 6 µM) | –
16 | C/C=C/C=C/C=C/C(=O)O[C@@H]1C=CC[C@H]2/C(=N/CCc3ccccn3)c3c(O)c4c5c(c3O[C@H]12)OCO[C@@H]5C[C@@H]1C(=O)c2cc(C)[nH]c(=O)c2C(=O)[C@]41O [Compound T13] | > 4 µg/mL | > 4 µg/mL | > 4 µg/mL | > 4 µg/mL | –
17 | C#CC/N=C1\c2c(O)c3c4c(c2O[C@@H]2[C@H](OC(=O)/C=C/C=C/C=C/C)C=CC[C@@H]12)OCO[C@@H]4C[C@@H]1C(=O)c2cc(C)[nH]c(=O)c2C(=O)[C@]31O [Compound T15] | > 4 µg/mL | > 4 µg/mL | > 4 µg/mL | > 4 µg/mL | –
18 | C/C=C/C=C/C=C/C(=O)O[C@@H]1C=CC[C@H]2/C(=N/CCCC)c3c(O)c4c5c(c3O[C@H]12)OCO[C@@H]5C[C@@H]1C(=O)c2cc(C)[nH]c(=O)c2C(=O)[C@]41O [Compound T6] | – | – | – | – | MIC [2, 8]: > 4 µg/mL; MIC [3, 9]: > 4 µg/mL; MIC [4, 10]: > 4 µg/mL; MIC [5, 11]: > 4 µg/mL
